# Organism: Rattus norvegicus
# Assay: Inhibition of rat recombinant geranylgeranyltransferase type I expressed in Escherichia coli assessed as residual enzyme activity for geranylgeranylation of K-Ras4B at 50 uM incubated for 30 mins in presence of [3H]GGPP by scintillation counting assay relative to control
row,Structure (SMILES),Activity [%]
1,CCc1ccc([C@@H]2C[C@@H](Sc3ccc(Cl)cc3)[C@H](C(=O)O)CN2S(=O)(=O)c2ccc(C)cc2)cc1,72
2,Cc1ccc(S(=O)(=O)N2[C@@H](c3ccc(Cl)cc3)C(C(=O)O)=CC[C@H]2c2ccc(Cl)cc2)cc1,52.8
3,Cc1ccc(S(=O)(=O)N2[C@@H](c3cccc(F)c3)C(C(=O)O)=CC[C@H]2c2cccc(Cl)c2)cc1,52.8
4,Cc1ccc(S(=O)(=O)N2C[C@@H](C(=O)O)[C@H](SCc3ccc(C(C)(C)C)cc3)C[C@H]2c2ccccc2)cc1,55.9
5,COc1ccc([C@@H]2CC=C(C(=O)O)[C@H](c3ccc(Cl)cc3)N2S(=O)(=O)c2ccc(C)cc2)cc1,91.4
6,Cc1ccc(S(=O)(=O)N2[C@@H](c3ccc(Br)cc3)C(C(=O)O)=CC[C@H]2c2ccc3c(c2)OCO3)cc1,74.4
7,Cc1ccc(S(=O)(=O)N2[C@@H](c3ccc(C(C)(C)C)cc3)C(C(=O)O)=CC[C@H]2c2ccccc2F)cc1,84.2
8,Cc1ccc(S(=O)(=O)N2C[C@@H](C(=O)O)[C@H](SCC(C)C)C[C@H]2c2ccc3c(c2)OCO3)cc1,81.7
9,COc1cc([C@@H]2C[C@@H](SCCC(C)C)[C@H](C(=O)O)CN2S(=O)(=O)c2ccc(C)cc2)cc(OC)c1OC,106
10,Cc1ccc(S(=O)(=O)N2[C@@H](c3ccc(F)cc3)C(C(=O)O)=CC[C@H]2c2cccc(Br)c2)cc1,62.7
11,COC(=O)c1ccccc1S(=O)(=O)N1[C@@H](c2cccc(F)c2)C(C(=O)O)=CC[C@H]1c1ccc(C)cc1,64.5
12,COc1ccc([C@@H]2C[C@@H](SCc3ccc(C(C)(C)C)cc3)[C@H](C(=O)O)CN2S(=O)(=O)c2ccc(C)cc2)cc1OC,78.9
13,Cc1ccc(S(=O)(=O)N2[C@@H](c3cccc(Br)c3)C(C(=O)O)=CC[C@H]2c2ccccc2)cc1,65.9
14,Cc1ccc([C@H]2C(C(=O)O)=CC[C@@H](c3ccccc3)N2S(C)(=O)=O)cc1,90.4
15,Cc1ccc([C@@H]2CC=C(C(=O)O)[C@H](c3cccc(F)c3)N2S(=O)(=O)c2ccccc2C)cc1,63.4
16,Cc1ccc([C@@H]2C[C@@H](SCCC(C)C)[C@H](C(=O)O)CN2S(=O)(=O)c2ccccc2C)cc1,75.2
17,CCCS[C@@H]1C[C@@H](c2ccc(OCC)cc2)N(S(=O)(=O)c2ccc(C)cc2)C[C@H]1C(=O)O,84.9
18,Cc1ccc(S(=O)(=O)N2[C@@H](c3ccc(C(C)(C)C)cc3)C(C(=O)O)=CC[C@H]2c2ccccc2)cc1,75.2
19,CCOc1ccc([C@@H]2CC=C(C(=O)O)[C@H](c3cccc(F)c3)N2S(=O)(=O)c2ccc(C)cc2)cc1,87.5
20,Cc1ccc(S(=O)(=O)N2[C@@H](c3cccc(F)c3)C(C(=O)O)=CC[C@H]2c2ccc(Cl)cc2)cc1,76.2
21,CCCS[C@@H]1C[C@@H](c2ccc(OC)c(OC)c2)N(S(=O)(=O)c2ccc(C)cc2)C[C@H]1C(=O)O,91.4
22,CCOc1ccc([C@@H]2CC=C(C(=O)O)[C@H](c3ccc(Cl)cc3)N2S(=O)(=O)c2ccc(C)cc2)cc1,71.6
23,CC(=O)C1=CC[C@@H](c2cccs2)N(S(=O)(=O)c2ccc(C)cc2)C1,90.3
24,Cc1ccc([C@@H]2CC=C(C(=O)O)[C@H](c3ccc(F)cc3)N2S(=O)(=O)c2ccc(C)cc2)cc1,67.7
25,Cc1ccc(S(=O)(=O)N2[C@@H](c3cccc(Cl)c3)C(C(=O)O)=CC[C@H]2c2ccc(Cl)cc2)cc1,59.2
26,CCc1ccc([C@@H]2CC=C(C(=O)O)[C@H](c3ccc(Cl)cc3)N2S(=O)(=O)c2ccc(C)cc2)cc1,89.8
27,COc1cccc([C@@H]2C[C@@H](Sc3ccc(C)cc3)[C@H](C(=O)O)CN2S(=O)(=O)c2ccc(C)cc2)c1,77
28,COc1cccc([C@@H]2C[C@@H](SCCC(C)C)[C@H](C(=O)O)CN2S(=O)(=O)c2ccc(C)cc2)c1,62
29,Cc1ccc([C@@H]2CC=C(C(=O)O)[C@H](c3cccc(C)c3)N2S(=O)(=O)c2ccc(C)cc2)cc1,66.3

# Other lines, results leading:
row,Activity [%],Structure (SMILES)
1,65.1,C=CCS[C@@H]1C[C@@H](c2ccc(OC)cc2)N(S(=O)(=O)c2ccccc2C)C[C@H]1C(=O)O
2,75.7,CCS[C@@H]1C[C@@H](c2cccc(Cl)c2)N(S(=O)(=O)c2ccc(C)cc2)C[C@H]1C(=O)O
3,83.2,COc1ccc([C@@H]2CC=C(C(=O)O)[C@H](c3ccc(Cl)cc3)N2S(=O)(=O)c2ccc(C)cc2)cc1OC
4,40.3,Cc1ccc([C@@H]2C[C@@H](SCc3ccccc3)[C@H](C(=O)O)CN2S(=O)(=O)c2ccc(Cl)cc2)cc1
5,60.7,Cc1ccc([C@H]2C(C(=O)O)=CC[C@@H](c3ccc(Cl)cc3)N2S(=O)(=O)c2ccc(C)cc2)cc1
6,64.9,Cc1ccc([C@@H]2CC=C(C(=O)O)[C@H](c3cccc(F)c3)N2S(=O)(=O)c2ccccc2)cc1
7,82.2,COc1ccc(S[C@@H]2C[C@@H](c3ccc(OC)cc3)N(S(=O)(=O)c3ccccc3C)C[C@H]2C(=O)O)cc1
8,67.7,COc1ccc([C@@H]2CC=C(C(=O)O)[C@H](c3ccc(F)cc3)N2S(=O)(=O)c2ccccc2)cc1
9,62.8,Cc1ccc(S(=O)(=O)N2[C@@H](c3cccc(C)c3)C(C(=O)O)=CC[C@H]2c2ccccc2F)cc1
10,91.8,COc1ccc([C@@H]2CC=C(C(=O)O)[C@H](c3cccc(F)c3)N2S(=O)(=O)c2ccccc2)cc1
11,72.2,Cc1ccc(S(=O)(=O)N2[C@@H](c3cccc(Br)c3)C(C(=O)O)=CC[C@H]2c2ccc(F)cc2)cc1
12,75.4,CCc1ccc([C@@H]2CC=C(C(=O)O)[C@H](c3cccc(Br)c3)N2S(=O)(=O)c2ccc(C)cc2)cc1
13,50.9,CCOc1ccc([C@@H]2C[C@@H](SCc3ccccc3)[C@H](C(=O)O)CN2S(=O)(=O)c2ccc(C)cc2)cc1
14,89.9,CCS[C@@H]1C[C@@H](c2ccc(OC)cc2)N(S(=O)(=O)c2ccccc2)C[C@H]1C(=O)O
15,89.4,COC(=O)c1ccccc1S(=O)(=O)N1[C@@H](c2ccc(C)cc2)C(C(=O)O)=CC[C@H]1c1ccc(C)cc1
16,70.9,CCCCCCS[C@@H]1C[C@@H](c2ccc(C)cc2)N(S(=O)(=O)c2ccc(C)cc2)C[C@H]1C(=O)O
17,55.3,COc1ccc([C@@H]2C[C@@H](Sc3ccc(Cl)cc3)[C@H](C(=O)O)CN2S(=O)(=O)c2ccc(C)cc2)cc1
18,66.6,Cc1ccc([C@@H]2CC=C(C(=O)O)[C@H](c3cccc(Br)c3)N2S(C)(=O)=O)cc1
19,91.9,CC(=O)C1=CC[C@@H](c2ccc(Cl)cc2)N(S(=O)(=O)c2ccccc2C)C1
20,84.6,CCCCCS[C@@H]1C[C@@H](c2cccc(Cl)c2)N(S(=O)(=O)c2ccc(C)cc2)C[C@H]1C(=O)O
21,81.2,CCCCCCS[C@@H]1C[C@@H](c2ccc(C)cc2)N(S(=O)(=O)c2ccccc2)C[C@H]1C(=O)O
22,92.3,COc1cc([C@@H]2CC=C(C(C)=O)CN2S(=O)(=O)c2ccc(C)cc2)cc(OC)c1OC
23,85,CCc1ccc([C@@H]2C[C@@H](Sc3ccc(C)cc3)[C@H](C(=O)O)CN2S(=O)(=O)c2ccc(C)cc2)cc1
24,100,Cc1ccc([C@@H]2C[C@@H](SC3CCCC3)[C@H](C(=O)O)CN2S(=O)(=O)c2ccccc2)cc1
25,79.1,CCOc1ccc([C@@H]2C[C@@H](Sc3ccc(OC)cc3)[C@H](C(=O)O)CN2S(=O)(=O)c2ccc(C)cc2)cc1
26,82.8,Cc1ccc(S(=O)(=O)N2[C@@H](c3ccc(C(C)(C)C)cc3)C(C(=O)O)=CC[C@H]2c2cccc(Br)c2)cc1
27,78.8,CCCS[C@@H]1C[C@@H](c2cccc(Cl)c2)N(S(=O)(=O)c2ccc(C)cc2)C[C@H]1C(=O)O

# — ChEMBL document CHEMBL4421722, “Inhibitors of protein prenyltransferases” (2013)
